One data set concerns IGF-1R+/+ and −/− MEFs. Put plainly: MTT assay on IGF-1R wildtype and null fibroblasts. It counts as cell-based, mouse. As for the experimental part:
Cell viability (MTT) and CFSE Proliferation assay: Cells were plated in 96-well plates and let adhere overnight. After cell treatment, cell viability was measured by 3-(4,5-dimethylthiazol-2-yl)-2,5-diphenyl tetrazolium bromide (MTT) assay (CellTiter 96® Aqueous, Promega, Madison, Wis.).
Cell proliferation assay: Cell proliferation assay (Promega) using CellTiter 96 aqueous one solution was performed by adding a small amount of the One Solution Reagent directly to culture wells, incubating for 1-4 hours and then recording absorbance at 490 nm with a spectrophotometric plate reader. The quantity of formazan product as measured by the amount of 490 nm absorbance was directly proportional to the number of living cells in culture.
Cell viability and detachment assays: After cells were treated with siRNA transfection, cell viability was measured by 3-(4,5-dimethylthiazol2-yl)-2,5-diphenyl tetrazolium bromide (MTT) assay (CellTiter 96® AQueous, Promega, Madison, Wis.). Briefly, 20 μl of the tetrazolium compound was added to each well. The cells were then incubated at 37° C. for 1 h. The plate was read at 490 nm with a plate reader to determine the viability. In detachment assays, detached and attached cells were harvested separately and counted in a hemocytometer. The percentage of detachment was calculated by dividing the number of detached cells by the total number of cells. Apoptosis assays: After treatment, attached and detached cells were collected, counted and prepared for terminal uridine deoxynucleotidyl transferase (TUNEL) assay by utilizing an APO-BRDU kit (BD Pharmingen, San Diego, Calif.) according to the manufacturer's instructions. Stained cells were analyzed with a fluorescence-activated cell sorting-Calibur flow cytometer (BD Biosciences). Calculation of the percentage of apoptotic cells in the sample was completed with CellQuest software (BD Biosciences). Apoptotic cells were also analyzed by Hoechst staining. Hoechst 33342 ([…]) was added to the fixed cells and the specimens were mounted on glass coverslips. The slides were viewed under the Zeiss microscope for apoptotic nuclei. The percent of apoptotic cells was calculated as the ratio of apoptotic cells to total number of cells.

The test system of the next data set is C8161 subcutaneous tumor. Put plainly: C8161 melanoma xenograft in nude mice. In kind it is in vivo. As to the method:
(§1) Kinase Profiler Screening: Kinase specificity screening was performed with Invitrogen's SelectScreen® Kinase Profiling Services http://www.invitrogen.com/site/us/en/home/Products-and-Services/Services/Discoverv-Research/SelectScreen-Profiling-Service/SelectScreen-Kinase-Profiling-Service.html. The screening was performed with 1 μM compound, INT2-31, 10 μM ATP, and kinase substrates against ten recombinant kinases according to Z′-LYTET™ Kinase Assay. For PI3 kinase activity, 100 μM ATP, and kinase substrate were utilized with the Invitrogen Adapta® Universal Kinase Assay protocol. Tumor Growth in Nude Mice in vivo: Six week old athymic, female nude mice were purchased from Harlan Laboratory. The mice were maintained in the animal facility, and all experiments were performed in compliance with NIH animal-use guidelines and under an IACUC approved protocol. Melanoma cells were injected, 5×10^6 cells, subcutaneously. When the tumor size reached 100 mm^3, the INT2-31 was introduced by intraperitoneal injection at a dose of 15 mg/kg daily for 21 days. Tumor diameters were measured with calipers, and tumor volume in mm^3 was calculated using the formula [(width)^2×length]/2. At the end of experiment, tumor weight and volume were determined.
For the melanoma study, the University of Florida IACUC approved the following protocol (IACUC Study #200801077). Melanoma cells were injected, 5×10^6 cells, subcutaneously. When the tumor size reached 100 mm^3, the INT2-31 was introduced by intraperitoneal injection at a dose of 15 mg/kg daily. Tumor diameters were measured with calipers, and tumor volume in mm^3 was calculated using the formula [(width)^2×length]/2. At the end of experiment, tumor weight and volume were determined.
(§2) Immunohistochemistry: Xenograft tumor tissue was fixed in 10% formalin and embedded in paraffin. For Ki-67 staining, samples underwent deparaffinization and antigen retrieval and incubated with the primary antibody, Ki-67 (Dako M7240), at 1:200 concentration overnight at 4° C. The tissues were stained with the chromogen DAB and counterstained with hematoxylin and 1% TBS.
For assessment of apoptotic cells, staining was performed utilizing the Dead End™ Calorimetric TUNEL System (Promega, Madison, Wis.) according to instructions from the manufacturer. Percent apoptotic cells were determined from counting at least 400 cells in a high power field.

The next data set relates to A375 subcutaneous tumor. Put plainly: A375 melanoma xenograft in nude mice. It counts as in vivo. The conditions noted are these: A375, 15 mg/kg daily intraperitoneal, 21 days, p<0.05. As for the experimental part:
as §1, with “Melanoma cells were injected, 5×10^6 cells, subcutaneously. When the tumor size reached 100 mm^3, the INT2-31 was introduced by intraperitoneal injection at a dose of 15 mg/kg daily for 21 days.” left out
For the melanoma study, the University of Florida IACUC approved the following protocol (IACUC Study #200801077). […] Tumor diameters were measured with calipers, and tumor volume in mm^3 was calculated using the formula [(width)^2×length]/2. At the end of experiment, tumor weight and volume were determined.

The test system of data set [1] is esophageal patient #5 adenocarcinoma tumor. Put plainly: Esophageal patient #5 xenograft. In kind it is in vivo, mice.
Source text: For tumor samples from human patients with esophageal or pancreatic cancer, the University of Florida IACUC approved the following protocol (IACUC Study #2000902767). A total of 25 patients, 10 with pancreatic cancer and 15 with esophageal cancer have been identified and implanted into nude mice. Initially small pieces (0.3×0.3×0.3 cm) from fresh pancreatic and esophageal human tumor samples were obtained from surgical specimens of patients operated at the University of Florida Shands Hospital, and implanted subcutaneously in-group of 2 mice for each patient. For esophageal cancer specimens, when one of them has reached 1.5 cc, it was excised and was cut into small pieces of (0.3×0.3×0.3 cm), and transplanted subcutaneously into another 10 mice. When tumors reached ˜100 mm^3, mice were randomized in the following 2 groups, with 5 mice in each group: • Group 1: Control: no treatment. • Group 2: INT2-31 (Compound 31): 50 mg/kg/day in 50 μL by i.p administration for 21 days.
Mice were euthanized 30-40 days after tumor innoculation and tumor and tissue collected. For inhibition of tumor growth in our subcutaneous model, tumor volumes (length×width×height×p/6) and body weights were determined daily including weekends and holidays, to monitor tumor growth and evaluate overall clinical condition, taking into account weight loss and indications of pain, distress, or abnormal behavior and physiology. Experiments were terminated when the mean control tumor volume was 1.5 cc (approximately 30-40 days).
as §2
Subsequently, we evaluated the inhibition of in vivo tumor growth of esophageal patient #5 specimen was evaluated. […]

Each structure is given as a SMILES string.

On to `CSc1ncnc2c1ccn2C1O[C@H](COP(=O)(O)O)[C@@H](O)[C@H]1O` (stereo partly drawn) [INT2-31, 4-(Methylthio)-7-(5-O-phosphono-D-ribofuranosyl)-{7H-Pyrrolo[2,3-d]pyrimidine}], for which, in the data set on IGF-1R+/+ and −/− MEFs (0.05 μM, 72-hour treatment), the “proliferation of IGF-1R+/+ fibroblast cells” value was “reduced the proliferation”. In addition, the “proliferation of IGF-1R−/− cells” value in the data set on IGF-1R+/+ and −/− MEFs (0.05 μM, 72-hour treatment) is “no effect”. For the same compound, the “effect on IGF-1R wildtype compared to null fibroblasts” value in the data set on IGF-1R+/+ and −/− MEFs (MTT, p<0.05) is reported as “significantly less sensitive”. Moreover, in the data set on C8161 subcutaneous tumor (15 mg/kg vs PBS control, Western blot), the “phosphorylation of AKT in tumor” value is reported as “decrease in phosphorylation of AKT”. For the same compound, the “subcutaneous tumor growth compared to PBS control” value in the data set with C8161 subcutaneous tumor (C8161, 15 mg/kg daily intraperitoneal, 21 days, p<0.05) was “significant decrease”; in the data set with A375 subcutaneous tumor it was “significant decrease”. Moreover, the “body weights between animals in each group” value in the data set with C8161 subcutaneous tumor (C8161 and A375 xenograft mice, 15 mg/kg) is recorded as “no significant difference”; in data set [1] (50 mg/kg daily intraperitoneal), “no significant difference”. In addition, the “intensity of Ki67 staining” value in the data set on C8161 subcutaneous tumor (C8161 tumors, 15 mg/kg vs PBS) is “significantly decreased”. The “percent of cells reactive to Ki67” value with C8161 subcutaneous tumor (C8161 tumors, 15 mg/kg vs PBS) is recorded as “significantly decreased”; in data set [1] (50 mg/kg vs PBS group) it was “significantly decreased”. Further, the “percent of cells undergoing apoptosis (TUNEL)” value in the data set on C8161 subcutaneous tumor (C8161 tumors, 15 mg/kg vs control, p<0.05) is recorded as “significantly increased”. Also, the “densitometry, mean ratio of IGF-1R to FAK in tumor” value in the data set with C8161 subcutaneous tumor (C8161 tumors, immunoprecipitation of FAK, PBS 0.98+/−0.11, p=0.09) was 0.78+/−0.16. For the same compound, the “tumor growth compared to PBS control” value in data set [1] (50 mg/kg daily intraperitoneal, 21 days, p<0.05) is “significant decrease”.
